Test results from patent US20030045541A1, “GABA-Receptor modulators with NMDA-Antagonistic activity” (priority 2001, published 2003).

Legend:
[1] = system: primary cell cultures of cortical neurons of rats; assay: Oxygen and glucose deprivation (OGD) model, LDH level in the medium; format: cell-based; conditions: for LDH level: OGD, after 24 hours, OGD control 25.1
Method: The measurements were performed on primary cell cultures of cortical neurons of rats. After the cells were grown in culture, the following test was performed:
Glucose and oxygen were simultaneously removed from the culture solution. This model is a definitely sturdy model, which simulates the conditions during a very serious and very extensive stroke. In the zero comparison, the culture solution was left unchanged (BSS=balanced salt solution). In the control, oxygen and glucose were removed (OGD=oxygen and glucose deprivation); in the test group, Abecarnil was added simultaneously to the oxygen and glucose removal.
As damage parameters for the neurons, the LDH (lactate-dehydrogenase) level in the solution was measured by the cells. LDH is a definitely reliable stress parameter for the cells. The stronger the neuronal stress is or the more cells are already ruined, the more the LDH levels in the medium increase. From a pharmaceutical agent with a neuroprotective effect, it can be expected that it reduces the LDH level in the medium.
In FIG. 1, the values of such a measurement were depicted. If the LDH levels were below OGD 25.1, they were 11.0 with 0.1 μm of Abecarnil; 6.2 with 1 μm of Abecarnil; 14.9 with 10 μm of Abecarnil, and 15 with 100 μm of Abecarnil (after 24 hours). In the case of an Abecarnil concentration of 1 μm, this corresponds to an LDH reduction of over 75%!

[2] = system: GABAA-receptor-mediated IPSCs; assay: Inhibitory post-synaptic flows (IPSCs), patch-clamp on cultivated neurons; format: cell-based, Wistar
Method: (§1) The measurements were produced on cultivated neurons of Wistar embryos on the eighteenth day of gestation. After the preparation, the neurons were grown on small plates. To this end, small cover glasses for microscopic preparations with a diameter of 12 mm (assistant) were used. In each case four of the small cover glasses were transferred to a small plastic dish (Nuncion).
As preparation media, the following solutions were used: GBSS (Grey's buffered salt solution, Sigma) supplemented with 10 mmol of HEPES (N-2-hydroxyethyl-piperazine-N-2-ethanesulfonic acid, Sigma), adjusted to pH 7.3 with NaOH (Sigma). As culture media, the following were used: DMEM (Sigma), glucose-containing, equine serum 10% (Sigma) and glutamine. The cells were generally divided so that at the beginning of the culture, 50,000 cells per small plate were present. The medium was changed according to the preparation after 24 hours and then changed after three days in each case. Synaptic spontaneous activity developed generally starting from the tenth day in vitro.
The extracellular measuring solution had the following composition (in mmol): NaCl 140; KCl 5.4; CaCl2 2; HEPES 10; MgCl 1; glucose 25. The pH was set at 7.4 with NaOH. IPSCs were isolated by adding 1,2,3,4,-tetrahydro-6-nitro-2,3-di-oxo-benzo-quinoxaline-7-sulfonamide (NBQX 10 μm) and DL-2-amino-5-phosphonovaleric acid (±-APV 30 μm). EPSCs were isolated by adding bicuculline (10 μm) and picrotoxin (20 μm). In the examination of the EPSCs, a ringer solution without MgCl2 was used. The pipette solution had the following composition (in mmol): KCl 120; MgCl2 2; CaCl2 1; HEPES 10; EGTA 11; glucose 20; the pH was 7.2.
(§2) The measurements were carried out at room temperature. […] The thus modulated signals were visualized by means of a storage oscilloscope and recorded with a thermal plotter. At the same time, the signals were detected via a […] and recorded on a videotape. The stored data were later played back, digitalized again and then evaluated “offline” with a PC. […]

glutamatergic EPSCs = assay: Excitatory post-synaptic flows (EPSCs), patch-clamp on cultivated neurons; format: cell-based, Wistar; conditions: P<0.05
Method: as §1
(§3) As preparation media, the following solutions were used: GBSS (Grey's buffered salt solution, Sigma) supplemented with 10 mmol of HEPES (N-2-hydroxyethyl-piperazine-N-2-ethanesulfonic acid, Sigma), adjusted to pH 7.3 with NaOH (Sigma). […]
as §2
(§4) Excitatory post-synaptic flows (EPSCs) were isolated by adding the GABAA-receptor antagonists bicuculline (20 μm) and the GABAA-receptor antagonist picrotoxin (10 μm) that has an allosteric effect. […] The pure EPSCs that can now be detected could be blocked completely by adding 10 μm of NBQX and 30 μm of APV and thus are purely glutamatergic.

AMPA-ergic activity = assay: Isolated AMPA-ergic activity of EPSCs (30 μm APV applied); format: cell-based, Wistar; conditions: 30 μm of APV on isolated EPSCs; n=3
Method: as §1, §3, §2
as §4, with “glutamatergic. […]” for “glutamatergic.”

NMDA receptor = assay: Isolated NMDA portion of EPSCs (10 μm NBQX applied); format: cell-based, Wistar; conditions: 10 μm of NBQX on isolated EPSCs, 1 μm of compound; n=7
Method: as §1, §3, §2
as §4, with “glutamatergic. […]” for “glutamatergic.”

## COCc1c(C(=O)OC(C)C)ncc2[nH]c3ccc(OCc4ccccc4)cc3c12 [Abecarnil, 6-benzyloxy-4-methoxymethyl-β-carboline-3-carboxylic acid isopropyl ester]
[1]; 0.1 μm of Abecarnil
  LDH level: 11.0
[1]; 1 μm of Abecarnil
  LDH level: 6.2
[1]; 1 μm of Abecarnil, versus OGD
  LDH reduction: over 75%
[1]; 10 μm of Abecarnil
  LDH level: 14.9
[1]; 100 μm of Abecarnil
  LDH level: 15
[2]; P<0.05
  slow time constant of the averaged IPSCs (τslow), % of the starting value: 289.7±180.9%
[2]; n=10, P<0.05
  IPSC frequency, % of the starting value: 33.8±24.7%
[2]; no statistical significance
  quick time constant of the averaged IPSCs (τfast), % of the starting value: 143.9±51.0%
Glutamatergic EPSCs
  EPSC amplitude, % of the starting value: 81.2±17.8%
  EPSC frequency, % of the starting value: 32.6±19.8%
AMPA-ergic activity
  effect on isolated AMPA-ergic activity: no effect
NMDA receptor
  effect on isolated NMDA portion of EPSC activity: completely blocked
